The EC50 is the concentration at which the effect is half-maximal. A word on the half-life: it is how long it takes for the measured level to halve. Low values mean rapid decline, high ones slow decline. The CC50 is the concentration giving 50% cytotoxicity.

This is an account of results in US20250114369A1, “COMPOUNDS AND METHODS FOR TREATMENT OF VIRAL INFECTIONS” (Gilead Sciences, Inc., priority 2023, published 2025).

Data set [1] relates to SARS Coronavirus 2 recombinant with NanoLuc (SARS-CoV2-NLuc). The data set can be described thus: organism not typed. It is filed as cell-based. To be noted: 48 h.
Data set [2] can be described thus: in vitro. It counts as in vitro ADME. Conditions: human, s9, pH 7.4. The protocol:
Duplicate aliquots of test compound or positive control substrate (GS-7340) were added to S9 stock diluted with 100 mM potassium phosphate buffer, pH 7.4, to obtain a protein concentration of 2.4 mg/mL. The S9 metabolic reactions were initiated by the addition of the substrates to the S9 reaction mixture to a final concentration of 2 μM. At 2, 12, 25, 45, 65 and 90 min, 25 μL aliquots of the reaction mixture were transferred to plates containing 225 μl of IS/Q solution. After quenching, the plates were centrifuged at 3000×g for 30 minutes, and 150 μL aliquots of each supernatant were diluted with 150 μL water. Aliquots (10 μL) of the diluted supernatant were analyzed on a Thermo Q-Exactive mass spectrometer as described below. Quantification of test compounds and controls was performed by analyte/internal standard peak area ratio (PAR) values measured on a Thermo Q-Exactive mass spectrometer coupled to a Dionex UltiMate 3000 HPLC with a Leap Technologies HTC PAL autosampler. The column used was a Thermo Hypersil GOLD (1.9 μm particle size, 2.1×50 mm). Mobile phase A consisted of […] formic acid in water. Mobile phase B consisted of 0.1% (v/v) formic acid in acetonitrile. Elution of analytes was achieved by a series of linear gradients of acetonitrile in water containing 0.1% (v/v) formic acid. The mass spectrometer was calibrated on a weekly basis and mass tolerance of 5 ppm was used.

The nature of data set [3]: in vitro. It is filed as in vitro ADME. Conditions: human, s9, pH 7.4. The protocol: Duplicate aliquots of test compound or positive control substrate (GS-7340) were added to PMSF-free Intestinal S9 fractions diluted with 100 mM phosphate buffered saline, pH 7.4, to obtain a protein concentration of 1.0 mg/mL. The S9 metabolic reactions were initiated by the addition of the substrates to the S9 reaction mixture to a final concentration of 2 μM. At 0, 10, 20, 30, 60 and 120 min, 25 μL aliquots of the reaction mixture were transferred to plates containing 225 μl of IS/Q solution. After quenching, the plates were centrifuged at 3000×g for 30 minutes, and 150 μL aliquots of each supernatant were diluted with 150 μL water. Aliquots (10 μL) of the diluted supernatant were analyzed on a Thermo Q-Exactive mass spectrometer as described below. Quantification of test compounds and controls was performed by analyte/internal standard peak area ratio (PAR) values measured on a Thermo Q-Exactive mass spectrometer coupled to a Dionex UltiMate 3000 HPLC with a Leap Technologies HTC PAL autosampler. The column used was a Thermo Hypersil GOLD (1.9 μm particle size, 2.1×50 mm). Mobile phase A consisted of […] formic acid in water. Mobile phase B consisted of 0.1% (v/v) formic acid in acetonitrile. Elution of analytes was achieved by a series of linear gradients of acetonitrile in water containing 0.1% (v/v) formic acid. The mass spectrometer was calibrated on a weekly basis and mass tolerance of 5 ppm was used.
The source holds these as a separate data set.

The format of data set [4] is in vitro ADME. To be noted: 2 μM. The procedure: Duplicate aliquots of plasma were warmed to 37° C. and the metabolic reactions initiated by the addition of test compound (6 μL of 0.1 mM DMSO stock) or plasma stability standard (GS-7340) to obtain a final substrate concentration of 2 μM. At 0.05, 0.5, 1, 2, 3 and 4 hr, 25 μL aliquots of the reaction mixture were transferred to plates containing 225 μl of IS/Q quenching solution. After quenching, the plates were centrifuged at 3000×g for 30 minutes, and 150 μL supernatant was diluted with 150 μL water. Aliquots (10 μL) of the diluted supernatant were analyzed on a Thermo Q-Exactive mass spectrometer as described below. Quantification of test compounds and controls was performed by analyte/internal standard peak area ratio (PAR) values measured on a Thermo Q-Exactive mass spectrometer coupled to a Dionex UltiMate 3000 HPLC with a Leap Technologies HTC PAL autosampler. The column used was a Thermo Hypersil GOLD (1.9 μm particle size, 2.1×50 mm). Mobile phase A consisted of […] formic acid in water. Mobile phase B consisted of 0.1% (v/v) formic acid in acetonitrile. Elution of analytes was achieved by a series of linear gradients of acetonitrile in water containing 0.1% (v/v) formic acid. The mass spectrometer was calibrated on a weekly basis and mass tolerance of 5 ppm was used.

Data set [5] relates to Caco-2 cells (clone C2BBel). Briefly: CACO-2 permeability. It counts as in vitro ADME. To be noted: donor pH 6.5, receiver pH 7.4; for DM Caco2 A to B: forward (A to B); for DM Caco2 B to A: reverse (B to A). The protocol:
Pre-plated Caco-2 cells (clone C2BBel) were obtained from Sigma-Aldrich, Inc. (Atlanta, GA). Cell monolayers were grown to confluence on collagen-coated, microporous, polycarbonate membranes in 24-well transwell plates for 21 days. The permeability assay buffer in donor wells was Hanks' balanced salt solution (HBSS) containing 10 mM HEPES and 15 mM glucose at a pH of 6.5 containing 200 μM BNPP. The receiver wells used HBSS buffer containing 10 mM HEPES and 15 mM glucose at a pH of 7.4 and supplemented with 1% BSA. After an initial equilibration with transport buffer, TEER values were read to test membrane integrity. The experiment was started by the addition of buffers containing test compounds, 200 μl and 1000 μl in the apical and basolateral chamber, respectively. At 0- and 2-hour post dose, 10 μL was sampled from donor compartment and was immediately diluted in 190 μL of 20% methanol. At 1 and 2 hours post dose, 100 μl of solution was taken from the receiver compartments and was immediately diluted in 100 μl of 20% methanol. Removed buffer was replaced with fresh buffer and a correction was applied to all calculations for the removed material. Each compound was tested in 2 separate replicate wells for each condition. All samples were then extracted with 400 μl 100% acetonitrile with internal standard to precipitate protein. Cells were dosed on the apical or basolateral side to determine forward (A to B) and reverse (B to A) permeability. To test for non-specific binding and compound instability, the total amount of drug was quantitated at the end of the experiment and compared to the material present in the original dosing solution as a percent recovery. Formation of the parent compound (GS-441524; Reference Compound A) was monitored in assay wells dosed with the prodrug. Samples were analyzed by LC-MS/MS.
A general note: Caco-2 monolayers are a common model of the intestinal barrier.

Data set [6] concerns Respiratory syncytial virus recombinant with luciferase (RSV-Luc5). Briefly: microbe, parasite or virus in culture. It is filed as cell-based. To be noted: human respiratory syncytial virus, NHBE, 72 h, read-out: RSV NHBE EC50 (nM).
Data set [7] can be described thus: in vitro. It counts as cell-based. Conditions: human. The procedure: Cytotoxicity of the compounds was determined in uninfected cells using the cell viability reagent in a similar fashion as described before for other cell types (Cihlar et al., Antimicrob Agents Chemother. 2008, 52(2):655-65). HEp-2 (1.5×10^3 cells/well) and MT-4 (2×10^3 cells/well) cells were plated in 384-well plates and incubated with the appropriate medium containing 3-fold serially diluted compound ranging from 15 nM to 100,000 nM. Cells were cultured for 4-5 days at 37° C. Following the incubation, the cells were allowed to equilibrate to 25° C., and cell viability was determined by adding Cell-Titer Glo viability reagent. The mixture was incubated for 10 min, and the luminescence signal was quantified using an Envision plate reader. Untreated cell and cells treated at 2 μM puromycin (Sigma, St. Louis, MO) serve as […] cell viability control, respectively. The percent of cell viability was calculated for each tested compound concentration relative to the 0% and 100% controls and the CC50 value was determined by non-linear regression as a compound concentration reducing the cell viability by […].

A value given as a limit tells only on which side of the number the result lay.
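Wherever CC50 is given: uninfected MT-4 cells over 4-5 days by CellTiter-Glo.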

Regarding `COC(=O)[C@H]1COC(=O)N1C(=O)OC[C@H]1O[C@@](C#N)(c2ccc3c(N)ncnn23)[C@H](O)[C@@H]1O` [Compound 5, O3-[[(2R,3S,4R,5R)-5-(4-aminopyrrolo[2,1-f][1,2,4]triazin-7-yl)-5-cyano-3,4-dihydroxy-tetrahydrofuran-2-yl]methyl]04-methyl (4R)-2-oxooxazolidine-3,4-dicarboxylate], the 50% effective concentration (EC50) amounted to 20.4 µM in data set [1] and 20100 nM in data set [6]. For the same molecule, the values for the half-life at 2 μM in data set [2] and in data set [3] were 256 min and 83.4 min, respectively. For the same molecule, the “STA Human Plasma 37” value in data set [4] worked out at 77.22. The “DM Caco2 A to B” value in data set [5] stood at 0.04. Also, in data set [5], the “DM Caco2 B to A” value is listed as 0.08. This molecule also showed a cytotoxic concentration (CC50) in data set [7] greater than 50 µM.
As to `CC(C)OC(=O)[C@@H](NC(=O)OC[C@H]1O[C@@](C#N)(c2ccc3c(N)ncnn23)[C@H](O)[C@@H]1O)C(C)C` [Compound 7, isopropyl-((((2R,3S,4R,5R)-5-(4-aminopyrrolo[2,1-f][1,2,4]triazin-7-yl)-5-cyano-3,4-dihydroxytetrahydrofuran-2-yl)methoxy)carbonyl)-L-valinate], the concentration for a half-maximal effect (EC50) is greater than 50 µM in data set [1] and greater than 50000 nM in data set [6]. Further, the half-life at 2 μM in data set [2] is no less than 592 min; in data set [3], no less than 792 min. In data set [4], the “STA Human Plasma 37” value is on record as 1303.4. For the same molecule, the “DM Caco2 A to B” value in data set [5] came to 0.115. Besides, the “DM Caco2 B to A” value in data set [5] was 6.245. Besides, the CC50 in data set [7] is greater than 50 µM.
For `N#C[C@@]1(c2ccc3c(N)ncnn23)O[C@H](COC(=O)N2CCCCCCC2)[C@@H](O)[C@H]1O` [Compound 9, [(2R,3S,4R,5R)-5-(4-aminopyrrolo[2,1-f][1,2,4]triazin-7-yl)-5-cyano-3,4-dihydroxy-tetrahydrofuran-2-yl]methyl azocane-1-carboxylate], the 50% effective concentration (EC50) was greater than 50 µM in data set [1] and 10300 nM in data set [6]. The half-life at 2 μM in data set [2] was 526 min; in data set [3] it was 400 min. The “STA Human Plasma 37” value in data set [4] came to 1584. Besides, the “DM Caco2 A to B” value in data set [5] came out at 0.47. Also, in data set [5], the “DM Caco2 B to A” value was found to be 6.67. Further, the CC50 in data set [7] is greater than 50 µM.
As to `N#C[C@@]1(c2ccc3c(N)ncnn23)O[C@H](COC(=O)SC2CCCC2)[C@@H](O)[C@H]1O` [Compound 16, [(2R,3S,4R,5R)-5-(4-aminopyrrolo[2,1-f][1,2,4]triazin-7-yl)-5-cyano-3,4-dihydroxy-tetrahydrofuran-2-yl]methyl cyclopentylsulfanylformate], the EC50 in data set [1] was determined as 8.75 µM; in data set [6] it was 2810 nM. In addition, the values for the half-life at 2 μM in data set [2] and in data set [3] were 6.2 min and 3.4 min, respectively. Besides, the midpoint of cytotoxicity in data set [7], the CC50, lay at 49.9 µM.
For `CCCSC(=O)OC[C@H]1O[C@@](C#N)(c2ccc3c(N)ncnn23)[C@H](OC(C)=O)[C@@H]1OC(C)=O` [Compound 22, [(2R,3R,4R,5R)-4-acetoxy-5-(4-aminopyrrolo[2,1-f][1,2,4]triazin-7-yl)-5-cyano-2-(propylsulfanylcarbonyloxymethyl)tetrahydrofuran-3-yl]acetate], the 50% effective concentration (EC50) in data set [1] is 9.83 µM; in data set [6], 3320 nM. The half-life at 2 μM in data set [2] was no more than 2 min; in data set [3], 1.59 min. This molecule also gave a CC50 in data set [7] greater than 50 µM.
The matching figures for `CCSC(=O)OC[C@H]1O[C@@](C#N)(c2ccc3c(N)ncnn23)[C@H](OC(C)=O)[C@@H]1OC(C)=O` [Compound 23, [(2R,3R,4R,5R)-4-acetoxy-5-(4-aminopyrrolo[2,1-f][1,2,4]triazin-7-yl)-5-cyano-2-(ethylsulfanylcarbonyloxymethyl)tetrahydrofuran-3-yl]acetate]: 12.4 µM, 3810 nM, no more than 2 min, 0.885 min and greater than 50 µM.
In the same order, the values of `CC(=O)O[C@H]1[C@@H](OC(C)=O)[C@](C#N)(c2ccc3c(N)ncnn23)O[C@@H]1COC(=O)SC(C)(C)C` [Compound 24, [(2R,3R,4R,5R)-4-acetoxy-5-(4-aminopyrrolo[2,1-f][1,2,4]triazin-7-yl)-2-(tert-butylsulfanylcarbonyloxymethyl)-5-cyano-tetrahydrofuran-3-yl]acetate] are greater than 50 µM, 19400 nM, no more than 2 min, 0.921 min and greater than 50 µM.
Turning to `CC(=O)O[C@H]1[C@@H](OC(C)=O)[C@](C#N)(c2ccc3c(N)ncnn23)O[C@@H]1COC(=O)SC1CCCC1` [Compound 25, [(2R,3R,4R,5R)-4-acetoxy-5-(4-aminopyrrolo[2,1-f][1,2,4]triazin-7-yl)-5-cyano-2-(cyclopentylsulfanylcarbonyloxymethyl)tetrahydrofuran-3-yl]acetate], the EC50 came out at 4.02 µM in data set [1] and 1250 nM in data set [6]. For the same molecule, the half-life at 2 μM in data set [2] was no more than 2 min; in data set [3], 1.14 min. The “STA Human Plasma 37” value in data set [4] is given as 72.169. The molecule also came in with a CC50 in data set [7] of 32.5 µM.
